Literature values, collected in paper PMC12689647, “Evaluation of bromadiolone combined with ciprofloxacin, vitamin D, aspirin, and cinnamon as an apoptosis-mediated rodenticide strategy” (Scientific Reports, 2025).

Legend:
[1] = test system: CYP1A; settings: co-administration, many animal species; cited from earlier work
[2] = test system: Albino rats; settings: repeated doses (1 g/kg); cited from earlier work
[3] = test system: G361 HMM cells; settings: cited from earlier work

**Q.** For O=C(O)c1cn(C2CC2)c2cc(N3CCNCC3)c(F)cc2c1=O [Ciprofloxacin], which “effect on CYP1A activity in hepatic microsomes” value [1] is on record?
**A.** inhibits CYP1A activity

**Q.** Which “toxic effects of repeated doses” value [2] does the source give for CC(=O)Oc1ccccc1C(=O)O [acetylsalicylic acid, Acetylsalicylic acid] here?
**A.** varying degrees of gastroenteritis, hepatitis, nephritis, pulmonary edema

**Q.** Which “effect on apoptotic signaling molecules” value [3] does the source give for O=c1ccc2cc(O)c(O)cc2o1 [esculetin] here?
**A.** activated apoptotic signaling molecules such as caspase-3 and PARP
